Data taken from the NIST ThermoML archive (doi:10.1016/j.jct.2018.12.026).
± gives the expanded uncertainty stated by the source.

Tests used:
[1] = Liquid; Ebulliometric method (Recirculating still)
[2] = refractive index (Na D-line) (dimensionless); conditions: 293.15 K; 101.33 kPa; Liquid; Standard Abbe refractometry

SMILES	Normal boiling temperature [1] [°C]	refractive index [2]
CCO [ethanol]	78.40 ± 0.2	1.3608 ± 0.0009
CCOC(=O)CC [ethyl propanoate]	99.10 ± 0.2	1.3839 ± 0.0005
CCC(=O)O [propanoic acid]	141.20 ± 0.2	1.3872 ± 0.0008
O [water]	100.00 ± 0.2	1.333 ± 0.0005
